These results are taken from article PMC5119973 (Cancer Medicine, 2016).

“And” between values parts separate entries of the source, which are not always exact repeats. Identical values can stand only once.

What all share (assay): KINOMEscan active-site competitive binding assay
Conditions in all cases: slash = two separate measurements

One test deals with T1, EPHA8 (Homo sapiens, UniProt P29322).
T1 construct: purchased DiscoveRx (KINOMEscan service)
T1 sequence (P29322 28-1005): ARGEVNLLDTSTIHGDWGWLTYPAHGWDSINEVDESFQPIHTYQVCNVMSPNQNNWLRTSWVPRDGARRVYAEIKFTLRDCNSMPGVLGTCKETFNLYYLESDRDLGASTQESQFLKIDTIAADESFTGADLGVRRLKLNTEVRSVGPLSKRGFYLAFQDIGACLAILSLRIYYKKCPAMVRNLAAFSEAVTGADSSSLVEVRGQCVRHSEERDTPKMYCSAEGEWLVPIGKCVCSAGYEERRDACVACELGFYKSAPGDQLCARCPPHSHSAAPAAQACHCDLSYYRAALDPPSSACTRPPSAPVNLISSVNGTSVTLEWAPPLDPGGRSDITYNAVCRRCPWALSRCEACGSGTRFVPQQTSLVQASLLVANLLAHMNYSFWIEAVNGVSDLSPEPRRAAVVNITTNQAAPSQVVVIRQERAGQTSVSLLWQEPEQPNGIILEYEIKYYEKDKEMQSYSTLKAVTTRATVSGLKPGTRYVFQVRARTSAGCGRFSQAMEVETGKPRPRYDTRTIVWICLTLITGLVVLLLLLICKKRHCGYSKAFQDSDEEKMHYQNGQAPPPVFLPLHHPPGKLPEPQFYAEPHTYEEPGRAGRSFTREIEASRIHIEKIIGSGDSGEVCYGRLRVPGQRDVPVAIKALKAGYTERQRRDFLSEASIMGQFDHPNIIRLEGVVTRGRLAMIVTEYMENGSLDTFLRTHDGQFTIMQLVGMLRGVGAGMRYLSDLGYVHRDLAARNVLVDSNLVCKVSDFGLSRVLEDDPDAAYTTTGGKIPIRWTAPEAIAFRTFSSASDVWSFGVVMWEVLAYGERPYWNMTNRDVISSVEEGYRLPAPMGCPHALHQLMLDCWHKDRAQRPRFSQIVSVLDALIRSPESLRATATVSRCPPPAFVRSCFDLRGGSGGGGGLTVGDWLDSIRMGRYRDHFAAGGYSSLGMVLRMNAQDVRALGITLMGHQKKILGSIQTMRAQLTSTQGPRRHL

Another test addresses T2, MUSK (Homo sapiens, UniProt O15146).
T2 construct: purchased DiscoveRx (KINOMEscan service)
T2 sequence (O15146 24-869): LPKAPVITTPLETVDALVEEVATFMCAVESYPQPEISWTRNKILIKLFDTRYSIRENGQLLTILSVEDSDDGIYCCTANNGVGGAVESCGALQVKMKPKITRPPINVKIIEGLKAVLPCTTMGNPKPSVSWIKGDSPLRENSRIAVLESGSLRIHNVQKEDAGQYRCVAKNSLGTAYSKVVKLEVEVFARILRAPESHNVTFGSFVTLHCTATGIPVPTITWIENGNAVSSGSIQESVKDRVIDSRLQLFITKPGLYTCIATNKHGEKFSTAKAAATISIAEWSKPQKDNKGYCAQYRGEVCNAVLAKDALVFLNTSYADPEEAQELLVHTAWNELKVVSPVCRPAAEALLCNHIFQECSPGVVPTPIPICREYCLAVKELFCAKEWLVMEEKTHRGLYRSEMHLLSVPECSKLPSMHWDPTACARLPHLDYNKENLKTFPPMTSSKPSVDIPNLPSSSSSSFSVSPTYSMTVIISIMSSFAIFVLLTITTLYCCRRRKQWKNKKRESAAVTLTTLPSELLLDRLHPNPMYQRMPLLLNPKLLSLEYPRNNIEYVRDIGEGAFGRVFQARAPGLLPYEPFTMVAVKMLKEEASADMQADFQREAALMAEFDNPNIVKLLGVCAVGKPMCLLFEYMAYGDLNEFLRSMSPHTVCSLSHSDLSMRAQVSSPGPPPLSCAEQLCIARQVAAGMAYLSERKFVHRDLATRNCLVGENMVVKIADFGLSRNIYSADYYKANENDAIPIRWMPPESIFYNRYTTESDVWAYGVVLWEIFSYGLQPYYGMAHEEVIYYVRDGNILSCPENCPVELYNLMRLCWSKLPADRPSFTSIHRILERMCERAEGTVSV

In another test the target is T3, p38-alpha (Homo sapiens, UniProt Q16539).
T3 construct: purchased DiscoveRx (KINOMEscan service)
T3 sequence (Q16539 whole entry): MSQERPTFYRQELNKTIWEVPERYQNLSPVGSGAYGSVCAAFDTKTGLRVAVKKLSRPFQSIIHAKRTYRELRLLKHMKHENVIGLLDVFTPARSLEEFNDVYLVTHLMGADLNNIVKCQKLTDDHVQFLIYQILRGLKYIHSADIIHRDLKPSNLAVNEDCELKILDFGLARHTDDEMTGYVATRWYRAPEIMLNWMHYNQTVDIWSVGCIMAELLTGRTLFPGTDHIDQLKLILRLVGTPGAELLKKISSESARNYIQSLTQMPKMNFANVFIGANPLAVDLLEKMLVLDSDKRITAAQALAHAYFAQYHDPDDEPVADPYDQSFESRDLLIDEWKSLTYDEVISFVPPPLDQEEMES

Another test has as its target T4, TIE-1 (Homo sapiens, UniProt P35590).
T4 construct: purchased DiscoveRx

In another test the target is T5, TNNI3K (Homo sapiens, UniProt Q59H18).
T5 construct: purchased DiscoveRx
T5 sequence (Q59H18 1-835): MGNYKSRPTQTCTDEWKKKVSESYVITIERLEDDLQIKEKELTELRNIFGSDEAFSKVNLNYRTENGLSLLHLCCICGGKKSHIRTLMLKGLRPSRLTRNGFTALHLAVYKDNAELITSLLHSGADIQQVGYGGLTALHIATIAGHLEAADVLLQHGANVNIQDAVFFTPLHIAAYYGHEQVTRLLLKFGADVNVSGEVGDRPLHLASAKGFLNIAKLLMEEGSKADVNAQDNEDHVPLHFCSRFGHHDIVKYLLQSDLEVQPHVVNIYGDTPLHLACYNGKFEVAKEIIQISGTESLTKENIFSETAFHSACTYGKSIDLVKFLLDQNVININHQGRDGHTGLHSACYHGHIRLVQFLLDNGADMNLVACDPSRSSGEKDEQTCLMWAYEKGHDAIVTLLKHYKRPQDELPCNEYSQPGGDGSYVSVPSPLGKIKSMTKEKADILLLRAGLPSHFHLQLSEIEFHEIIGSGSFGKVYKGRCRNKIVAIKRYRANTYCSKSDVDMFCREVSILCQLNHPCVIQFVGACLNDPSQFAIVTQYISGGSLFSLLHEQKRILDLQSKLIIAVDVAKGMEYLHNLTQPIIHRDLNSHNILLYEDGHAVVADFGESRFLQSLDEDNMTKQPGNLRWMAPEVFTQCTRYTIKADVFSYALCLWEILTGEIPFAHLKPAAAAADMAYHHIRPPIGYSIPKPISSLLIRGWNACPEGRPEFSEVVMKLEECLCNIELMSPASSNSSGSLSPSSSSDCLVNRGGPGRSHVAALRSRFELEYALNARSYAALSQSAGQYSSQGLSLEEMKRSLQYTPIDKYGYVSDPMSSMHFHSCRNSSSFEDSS

T4 sequence (P35590 22-1138): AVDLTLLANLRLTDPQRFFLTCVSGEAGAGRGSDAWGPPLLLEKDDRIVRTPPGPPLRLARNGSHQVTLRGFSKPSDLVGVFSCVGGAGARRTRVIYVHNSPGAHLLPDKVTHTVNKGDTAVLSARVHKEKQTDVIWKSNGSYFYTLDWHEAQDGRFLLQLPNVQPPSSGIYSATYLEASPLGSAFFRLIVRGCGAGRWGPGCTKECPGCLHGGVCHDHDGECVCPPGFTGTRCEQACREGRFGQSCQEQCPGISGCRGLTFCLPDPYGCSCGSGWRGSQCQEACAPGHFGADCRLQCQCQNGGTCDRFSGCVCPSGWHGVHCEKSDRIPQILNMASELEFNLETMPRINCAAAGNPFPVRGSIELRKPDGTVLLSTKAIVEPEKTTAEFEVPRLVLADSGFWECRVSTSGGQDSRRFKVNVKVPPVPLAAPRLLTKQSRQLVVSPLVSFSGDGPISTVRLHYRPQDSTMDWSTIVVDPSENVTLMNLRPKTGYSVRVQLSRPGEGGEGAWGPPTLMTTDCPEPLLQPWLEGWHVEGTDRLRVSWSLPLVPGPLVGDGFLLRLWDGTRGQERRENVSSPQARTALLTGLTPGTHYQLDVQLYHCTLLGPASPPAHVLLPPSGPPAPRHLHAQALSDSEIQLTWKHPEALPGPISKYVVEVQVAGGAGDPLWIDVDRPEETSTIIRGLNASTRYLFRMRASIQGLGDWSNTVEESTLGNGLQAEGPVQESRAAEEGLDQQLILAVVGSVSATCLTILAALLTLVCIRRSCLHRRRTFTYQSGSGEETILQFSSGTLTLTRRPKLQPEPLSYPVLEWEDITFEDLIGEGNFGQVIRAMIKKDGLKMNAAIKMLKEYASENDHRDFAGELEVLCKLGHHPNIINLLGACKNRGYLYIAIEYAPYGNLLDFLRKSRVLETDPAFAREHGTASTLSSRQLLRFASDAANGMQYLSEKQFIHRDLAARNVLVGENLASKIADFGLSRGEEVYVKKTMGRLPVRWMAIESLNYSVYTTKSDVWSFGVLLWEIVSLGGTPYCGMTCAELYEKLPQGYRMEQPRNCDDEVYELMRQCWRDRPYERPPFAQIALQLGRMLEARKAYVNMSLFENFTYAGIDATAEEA

By Kd is commonly meant the constant that tells how readily two partners part at equilibrium. In the case of `CNC(=O)c1cc(Oc2ccc(NC(=O)Nc3ccc(Cl)c(C(F)(F)F)c3)c(F)c2)cc[n+]1[O-]` [M‐2], the Kd on EPHA8 stood at 0.061 µM; on MUSK it was 0.14 µM; at p38-alpha, 0.017 µM; on TIE-1, 0.048 µM; at TNNI3K, 0.16 µM.

`NC(=O)c1cc(Oc2ccc(NC(=O)Nc3ccc(Cl)c(C(F)(F)F)c3)c(F)c2)cc[n+]1[O-]` [M‐5]: the Kd on EPHA8 was 0.073 µM; at MUSK, 0.14 µM; at p38-alpha, 0.048 µM; on TIE-1, 0.073 µM; at TNNI3K, 0.077 µM.

With `CNC(=O)c1cc(Oc2ccc(NC(=O)Nc3ccc(Cl)c(C(F)(F)F)c3)c(F)c2)ccn1` [Regorafenib, reference compound], the Kd is 0.14 µM and 0.13 µM at EPHA8; 0.068 µM and 0.067 µM on MUSK; 0.058 µM and 0.048 µM at p38-alpha; 0.03 µM and 0.027 µM at TIE-1; 0.17 µM and 0.11 µM at TNNI3K.
